The record followed here is US9605008B2, “Benzyl-1H-pyrazolo[3,4-b]pyridines and use thereof” (BAYER PHARMA AKTIENGESELLSCHAFT, priority 2013, dated 2017).

Molecules are shown by their SMILES.

Assay [1] concerns the target human phosphodiesterase 5 (PDE 5) (Homo sapiens (Human), UniProt O76074). The assay can be described thus: Inhibition of human phosphodiesterase 5 (PDE 5). In kind it is biochemical. Particulars: PDE 5 preparation from human platelets; [8-3H] cGMP substrate, SPA; in some cases means of individual determinations. As for the experimental part: B-3. Inhibition of Human Phosphodiesterase 5 (PDE 5)
PDE 5 preparations are obtained from human platelets by disruption (Microfluidizer®, 800 bar, 3 passes), followed by centrifugation (75000 g, 60 min, 4° C.) and ion exchange chromatography of the supernatant on a Mono Q 10/10 column (linear sodium chloride gradient, elution with a 0.2-0.3M solution of sodium chloride in buffer (20 mM Hepes pH 7.2, 2 mM magnesium chloride). Fractions having PDE 5 activity are combined (PDE 5 preparation) and stored at −80° C.
To determine their in vitro action on human PDE 5, the test substances are dissolved in 100% DMSO and serially diluted. Typically, dilution series (1:3) from 200 μM to 0.091 μM are prepared (resulting final concentrations in the test: 4 μM to 0.0018 μM). In each case 2 μl of the diluted substance solutions are placed into the wells of microtitre plates (Isoplate-96/200W; Perkin Elmer). Subsequently, 50 μl of a dilution of the above-described PDE 5 preparation are added. The dilution of the PDE 5 preparation is chosen such that during the later incubation less than 70% of the substrate are converted (typical dilution: 1:100; dilution buffer: 50 mM tris/hydrochloric acid pH 7.5, 8.3 mM magnesium chloride, 1.7 mM EDTA, 0.2% BSA). The substrate, [8-^3H] cyclic guanosine-3′,5′-monophosphate (1 μCi/μl; Perkin Elmer) is diluted 1:2000 with assay buffer (50 mM tris/hydrochloric acid pH 7.5, 8.3 mM magnesium chloride, 1.7 mM EDTA) to a concentration of 0.0005 μCi/μl. By addition of 50 μl (0.025 μCi) of the diluted substrate, the enzyme reaction is finally started. The test mixtures are incubated at room temperature for 60 min and the reaction is stopped by adding 25 μl of a suspension of 18 mg/ml yttrium scintillation proximity beads in water (phosphodiesterase beads for SPA assays, RPNQ 0150, Perkin Elmer). The microtitre plates are sealed with a film and left to stand at room temperature for 60 min. Subsequently, the plates are analysed for 30 s per well in a Microbeta scintillation counter (Perkin Elmer). IC50 values are determined using the graphic plot of the substance concentration against percentage PDE 5 inhibition.

For assay [2], the target named is recombinant guanylate cyclase reporter cell line (Rattus norvegicus (Rat), UniProt P19686+P20595). The assay can be described thus: Effect on a recombinant guanylate cyclase reporter cell line. In kind it is cell-based. Particulars: in some cases means of individual determinations. How it is done:
B-2. Effect on a Recombinant Guanylate Cyclase Reporter Cell Line
The cellular activity of the compounds according to the invention is determined using a recombinant guanylate cyclase reporter cell line, as described in F. Wunder et al., Anal. Biochem. 339, 104-112 (2005).
Representative values (MEC=minimum effective concentration) for the compounds according to the invention are shown in the table below (Table 1; in some cases as means of individual determinations): […]

recombinant guanylate cyclase reporter cell line, sequence (P19686 whole entry): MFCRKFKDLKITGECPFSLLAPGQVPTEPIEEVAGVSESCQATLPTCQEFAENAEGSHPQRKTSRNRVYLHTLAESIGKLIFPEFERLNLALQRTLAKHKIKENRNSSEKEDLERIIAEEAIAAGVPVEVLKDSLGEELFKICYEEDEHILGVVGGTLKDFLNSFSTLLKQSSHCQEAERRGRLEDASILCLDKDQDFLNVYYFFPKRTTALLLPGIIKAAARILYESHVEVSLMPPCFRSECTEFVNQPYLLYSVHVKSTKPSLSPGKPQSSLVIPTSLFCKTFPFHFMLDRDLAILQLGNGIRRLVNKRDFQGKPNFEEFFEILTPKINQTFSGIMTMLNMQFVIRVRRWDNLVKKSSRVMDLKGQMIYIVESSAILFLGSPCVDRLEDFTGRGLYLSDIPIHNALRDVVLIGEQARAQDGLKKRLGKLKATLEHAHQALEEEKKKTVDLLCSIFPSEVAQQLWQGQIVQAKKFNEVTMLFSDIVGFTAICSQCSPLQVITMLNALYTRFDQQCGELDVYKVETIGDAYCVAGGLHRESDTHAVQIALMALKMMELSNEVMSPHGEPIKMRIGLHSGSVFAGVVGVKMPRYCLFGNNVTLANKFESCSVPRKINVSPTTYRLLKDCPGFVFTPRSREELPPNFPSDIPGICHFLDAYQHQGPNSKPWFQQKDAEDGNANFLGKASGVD
recombinant guanylate cyclase reporter cell line, sequence (P20595 whole entry): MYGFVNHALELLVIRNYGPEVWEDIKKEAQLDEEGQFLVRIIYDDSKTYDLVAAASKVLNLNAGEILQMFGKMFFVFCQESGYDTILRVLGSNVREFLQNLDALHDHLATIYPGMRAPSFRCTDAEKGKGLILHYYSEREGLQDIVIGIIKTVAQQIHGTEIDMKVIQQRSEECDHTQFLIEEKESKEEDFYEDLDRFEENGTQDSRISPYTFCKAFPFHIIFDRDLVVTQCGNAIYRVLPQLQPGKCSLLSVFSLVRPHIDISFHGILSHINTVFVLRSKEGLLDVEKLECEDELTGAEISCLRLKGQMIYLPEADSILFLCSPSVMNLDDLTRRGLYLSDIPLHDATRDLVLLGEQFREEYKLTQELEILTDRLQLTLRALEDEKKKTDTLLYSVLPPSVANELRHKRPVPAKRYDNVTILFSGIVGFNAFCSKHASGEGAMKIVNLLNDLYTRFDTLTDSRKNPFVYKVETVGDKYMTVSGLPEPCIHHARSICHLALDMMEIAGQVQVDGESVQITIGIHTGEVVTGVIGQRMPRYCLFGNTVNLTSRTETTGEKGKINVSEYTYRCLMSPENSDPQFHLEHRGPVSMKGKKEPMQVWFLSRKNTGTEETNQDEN

For orientation: IC50 means the concentration at which inhibition is half-maximal. High values mean lower potency, low ones higher potency. The compound `Cc1nc2c(cc1F)c(-c1nnc3c(n1)NC(=O)C3(C)C)nn2Cc1cccc(F)c1F` [Example 1, 3-[1-(2,3-Difluorobenzyl)-5-fluoro-6-methyl-1H-pyrazolo[3,4-b]pyridin-3-yl]-7,7-dimethyl-5,7-dihydro-6H-pyrrolo[2,3-e][1,2,4]triazin-6-one] displayed an IC50 in assay [1] of 5 nM. In assay [2], the “MEC (minimum effective concentration)” value turned out to be 30 nM.

Consider `Cc1nc2c(cc1F)c(-c1nnc3c(n1)[N-]C(=O)C3(C)C)nn2Cc1cccc(F)c1F.[Na+]` [Example 2, Sodium 3-[1-(2,3-difluorobenzyl)-5-fluoro-6-methyl-1H-pyrazolo[3,4-b]pyridin-3-yl]-7,7-dimethyl-6-oxo-6,7-dihydropyrrolo[2,3-e][1,2,4]triazin-5-ide], for which, in assay [1], the half-inhibitory concentration (IC50) was 5 nM. Besides, the “MEC (minimum effective concentration)” value in assay [2] was found to be 30 nM.

As to `Cc1ccc(Cn2nc(-c3nnc4c(n3)NC(=O)C4(C)C)c3cc(F)c(C)nc32)c(F)c1` [Example 5, 3-[5-Fluoro-1-(2-fluoro-4-methylbenzyl)-6-methyl-1H-pyrazolo[3,4-b]pyridin-3-yl]-7,7-dimethyl-5,7-dihydro-6H-pyrrolo[2,3-e][1,2,4]triazin-6-one], in assay [1], 1.5 nM corresponded to half-maximal inhibition (IC50). For the same compound, in assay [2], the “MEC (minimum effective concentration)” value is 100 nM.

Regarding `Cc1ccc(Cn2nc(-c3nnc4c(n3)NC(=O)C4(C)C)c3ccc(C)nc32)c(F)c1` [Example 6, 3-[1-(2-Fluoro-4-methylbenzyl)-6-methyl-1H-pyrazolo[3,4-b]pyridin-3-yl]-7,7-dimethyl-5,7-dihydro-6H-pyrrolo[2,3-e][1,2,4]triazin-6-one], in assay [1], the IC50 was 2 nM. Also, the “MEC (minimum effective concentration)” value in assay [2] was determined as 200 nM.

In the case of `Cc1nc2c(cc1F)c(-c1nnc3c(n1)NC(=O)C3(C)C)nn2Cc1ccc(F)cc1F` [Example 7, 3-[1-(2,4-Difluorobenzyl)-5-fluoro-6-methyl-1H-pyrazolo[3,4-b]pyridin-3-yl]-7,7-dimethyl-5,7-dihydro-6H-pyrrolo[2,3-e][1,2,4]triazin-6-one], the concentration for half-maximal inhibition (IC50) in assay [1] is 21 nM. Also, the “MEC (minimum effective concentration)” value in assay [2] stood at 100 nM.

Compound `Cc1ccc2c(-c3nnc4c(n3)NC(=O)C4(C)C)nn(Cc3ccc(F)cc3F)c2n1` [Example 8, 3-[1-(2,4-Difluorobenzyl)-6-methyl-1H-pyrazolo[3,4-b]pyridin-3-yl]-7,7-dimethyl-5,7-dihydro-6H-pyrrolo[2,3-e][1,2,4]triazin-6-one] displayed a half-inhibitory concentration (IC50) in assay [1] of 34 nM. The “MEC (minimum effective concentration)” value in assay [2] is reported as 300 nM.

Regarding `Cc1nc2c(cc1F)c(-c1nnc3c(n1)NC(=O)C3(C)C)nn2Cc1ccc(Cl)cc1F` [Example 9, 3-[1-(4-Chloro-2-fluorobenzyl)-5-fluoro-6-methyl-1H-pyrazolo[3,4-b]pyridin-3-yl]-7,7-dimethyl-5,7-dihydro-6H-pyrrolo[2,3-e][1,2,4]triazin-6-one], the IC50 in assay [1] came out at 6 nM. Moreover, the “MEC (minimum effective concentration)” value in assay [2] stood at 300 nM.

`Cc1ccc2c(-c3nnc4c(n3)NC(=O)C4(C)C)nn(Cc3ccc(Cl)cc3F)c2n1` [Example 10, 3-[1-(4-Chloro-2-fluorobenzyl)-6-methyl-1H-pyrazolo[3,4-b]pyridin-3-yl]-7,7-dimethyl-5,7-dihydro-6H-pyrrolo[2,3-e][1,2,4]triazin-6-one] showed an IC50 in assay [1] of 4.5 nM. The “MEC (minimum effective concentration)” value in assay [2] is 300 nM.

Consider `Cc1nc2c(cc1F)c(-c1nnc3c(n1)NC(=O)C3(C)C)nn2Cc1c(F)ccc(F)c1F` [Example 11, 3-[5-Fluoro-6-methyl-1-(2,3,6-trifluorobenzyl)-1H-pyrazolo[3,4-b]pyridin-3-yl]-7,7-dimethyl-5,7-dihydro-6H-pyrrolo[2,3-e][1,2,4]triazin-6-one], for which inhibition in assay [1] was half-maximal at 27 nM (IC50). Also, the “MEC (minimum effective concentration)” value in assay [2] came out at 30 nM.

As to `Cc1ccc2c(-c3nnc4c(n3)NC(=O)C4(C)C)nn(Cc3c(F)ccc(F)c3F)c2n1` [Example 12, 7,7-Dimethyl-3-[6-methyl-1-(2,3,6-trifluorobenzyl)-1H-pyrazolo[3,4-b]pyridin-3-yl]-5,7-dihydro-6H-pyrrolo[2,3-e][1,2,4]triazin-6-one], half-maximal inhibition in assay [1] (IC50) was put at 21 nM. For the same compound, the “MEC (minimum effective concentration)” value in assay [2] stood at 300 nM.

As for `Cc1nc2c(cc1F)c(-c1nnc3c(n1)NC(=O)C3(C)C)nn2Cc1cccc(Cl)c1F` [Example 13, 3-[1-(3-Chloro-2-fluorobenzyl)-5-fluoro-6-methyl-1H-pyrazolo[3,4-b]pyridin-3-yl]-7,7-dimethyl-5,7-dihydro-6H-pyrrolo[2,3-e][1,2,4]triazin-6-one], 42 nM corresponded to half-maximal inhibition in assay [1] (IC50). Further, the “MEC (minimum effective concentration)” value in assay [2] came out at 100 nM.

Take `Cc1ccc2c(-c3nnc4c(n3)NC(=O)C4(C)C)nn(Cc3cccc(Cl)c3F)c2n1` [Example 14, 3-[1-(3-Chloro-2-fluorobenzyl)-6-methyl-1H-pyrazolo[3,4-b]pyridin-3-yl]-7,7-dimethyl-5,7-dihydro-6H-pyrrolo[2,3-e][1,2,4]triazin-6-one]: the concentration for half-maximal inhibition (IC50) in assay [1] was 63 nM. In addition, in assay [2], the “MEC (minimum effective concentration)” value is 300 nM.

In assay [1], `Cc1nc2c(cc1F)c(-c1nnc3c(n1)NC(=O)C3(C)C)nn2Cc1c(F)cccc1F` [Example 15, 3-[1-(2,6-Difluorobenzyl)-5-fluoro-6-methyl-1H-pyrazolo[3,4-b]pyridin-3-yl]-7,7-dimethyl-5,7-dihydro-6H-pyrrolo[2,3-e][1,2,4]triazin-6-one] came in with an IC50 of 67 nM. Besides, the “MEC (minimum effective concentration)” value in assay [2] was found to be 65 nM.

Regarding `Cc1ccc2c(-c3nnc4c(n3)NC(=O)C4(C)C)nn(Cc3c(F)cccc3F)c2n1` [Example 16, 3-[1-(2,6-Difluorobenzyl)-6-methyl-1H-pyrazolo[3,4-b]pyridin-3-yl]-7,7-dimethyl-5,7-dihydro-6H-pyrrolo[2,3-e][1,2,4]triazin-6-one], the IC50 in assay [1] is 24 nM. Further, the “MEC (minimum effective concentration)” value in assay [2] amounted to 300 nM.

Compound `Cc1ccc(Cn2nc(-c3nnc4c(n3)NC(=O)C4(C)C)c3cc(F)c(C)nc32)cc1F` [Example 17, 3-[5-Fluoro-1-(3-fluoro-4-methylbenzyl)-6-methyl-1H-pyrazolo[3,4-b]pyridin-3-yl]-7,7-dimethyl-5,7-dihydro-6H-pyrrolo[2,3-e][1,2,4]triazin-6-one] displayed an IC50 in assay [1] of 8 nM. Further, in assay [2], the “MEC (minimum effective concentration)” value came out at 300 nM.

In the case of `Cc1ccc2c(-c3nnc4c(n3)NC(=O)C4(C)C)nn(Cc3ccc(C)c(F)c3)c2n1` [Example 18, 3-[1-(3-Fluoro-4-methylbenzyl)-6-methyl-1H-pyrazolo[3,4-b]pyridin-3-yl]-7,7-dimethyl-5,7-dihydro-6H-pyrrolo[2,3-e][1,2,4]triazin-6-one], the concentration for half-maximal inhibition (IC50) in assay [1] was 10 nM. In assay [2], the “MEC (minimum effective concentration)” value was determined as 1000 nM.

Compound `Cc1ccc(Cn2nc(-c3nnc4c(n3)NC(=O)C4(C)C)c3cc(F)c(C)nc32)c(F)c1F` [Example 19, 3-[1-(2,3-Difluoro-4-methylbenzyl)-5-fluoro-6-methyl-1H-pyrazolo[3,4-b]pyridin-3-yl]-7,7-dimethyl-5,7-dihydro-6H-pyrrolo[2,3-e][1,2,4]triazin-6-one] had a half-maximal inhibitory concentration (IC50) in assay [1] of 0.25 nM. Besides, in assay [2], the “MEC (minimum effective concentration)” value turned out to be 300 nM.

In turn, `Cc1ccc2c(-c3nnc4c(n3)NC(=O)C4(C)C)nn(Cc3ccc(C)c(F)c3F)c2n1` [Example 20, 3-[1-(2,3-Difluoro-4-methylbenzyl)-6-methyl-1H-pyrazolo[3,4-b]pyridin-3-yl]-7,7-dimethyl-5,7-dihydro-6H-pyrrolo[2,3-e][1,2,4]triazin-6-one] had an IC50 in assay [1] of 0.65 nM. The “MEC (minimum effective concentration)” value in assay [2] is listed as 300 nM.

The compound `Cc1ccc(Cn2nc(-c3nnc4c(n3)NC(=O)C43CC3)c3ccc(C)nc32)c(F)c1` [Example 22, 3′-[1-(2-Fluoro-4-methylbenzyl)-6-methyl-1H-pyrazolo[3,4-b]pyridin-3-yl]spiro[cyclopropane-1,7′-pyrrolo[2,3-e][1,2,4]triazin]-6′(5′H)-one] came in with an IC50 in assay [1] of 16 nM.

As to `Cc1ccc2c(-c3nnc4c(n3)NC(=O)C43CC3)nn(Cc3cccc(F)c3F)c2n1` [Example 24, 3′-[1-(2,3-Difluorobenzyl)-6-methyl-1H-pyrazolo[3,4-b]pyridin-3-yl]spiro[cyclopropane-1,7′-pyrrolo[2,3-e][1,2,4]triazin]-6′(5′H)-one], in assay [1], the half-maximal inhibitory concentration (IC50) stood at 21 nM. In addition, the “MEC (minimum effective concentration)” value in assay [2] came to 300 nM.
